Experimental data: patent US20260183396A1, “CXCR3 OVEREXPRESSION IN CAR-NK CELLS PRIMES MIGRATION/HOMING INTO THE TUMOR MICROENVIRONMENT” (DANA-FARBER CANCER INSTITUTE, INC., priority 2022, published 2026)

Tested on: MPM explants
Assay: Dynamic single-cell RNA sequencing of MPM explants
Type: cell-based, human
Method: Dynamic single-cell RNA sequencing and data analysis. The previous protocol (Sehgal et al., J. Clin. Invest. 131:e135038 (2021)) was adapted to test S1 explants from MPM PDOTS. […] After 24 hours of treatment in a ULA dish, tumor spheroids were digested with trypsin in a 37° C. incubator for 5 minutes to obtain single-cell suspensions. Cells were loaded onto a 10× chromium instrument (10× Genomics) per manufacturer's instructions. ScRNA libraries were generated using the single cell 3′ reagent kit (10× Genomics) per the user guide. Quality control of the completed libraries was performed using a bioanalyzer high sensitivity DNA kit (Agilent) and then sequenced using the Illumina NextSeq 500 platform.
Raw sequencing reads were processed using the 10× Genomics CellRanger bioinformatics pipeline v6.0.1. The assembled matrix was then fed into the standard workflow of the R package, Seurat v4.0.4. Genes that were expressed in at least 3 cells, and only cells that expressed at least […], were kept for downstream processing. Additionally, cells expressing more than 7000 genes and cells with more than 10% of UMIs mapping to mitochondrial genes were removed from the analysis. All the samples were prepared and sequenced together on the same platform. The filtered matrix was log-normalized using global scaling in Seurat. UMI and mitochondrial transcript content were used as regression parameters. The normalized matrix was scaled and centered gene-wise, and then underwent dimensionality reduction using principal component analysis (PCA) on the highly varying genes. After visual inspection of the PCA elbow plot, the top 10 PCs were chosen for further analysis. Clustering was performed on the chosen PCs using the shared nearest neighbor algorithm in Seurat with default parameters.
A Uniform Manifold Approximation and Projection (UMAP) map was computed and plotted with the DimPlot module of Seurat. Cluster differential expression analysis was performed in Seurat using the FindMarkers command using the Wilcoxon rank sum test without thresholds. Contour plots overlayed onto UMAPs were generated with R package ggplot2 (Wickham, Springer-Verlag New York (2016)).
Cell types were identified based on comparative analysis of the signatures published previously (Han et al., Cell 172:1091-1107 (2018); Muhl et al., Nat. Commun. 11:3953 (2020); Correia et al., Proc. Natl. Acad. Sci. U.S.A. 115:E5980-E5989 (2018); Gueugnon et al., Am. J. Pathol. 178:1033-42 (2011)), as well as marker genes identified in this study, which were used to remove genes ubiquitously expressed across cell subpopulations. Collagen-encoding genes were added to the fibroblast signature.

In the case of `Nc1ncnc2c1ncn2[C@@H]1O[C@@H]2COP(=O)([S-])O[C@@H]3[C@H](O)[C@@H](COP([O-])(=S)O[C@H]2[C@H]1O)O[C@H]3n1cnc2c(N)ncnc21.[Na+].[Na+]` (stereo partly drawn) [ADU-S100], the “BST2 avg log2FC” value (10 μM ADU-S100) is reported as 2.86, the “C15orf48 avg log2FC” value (10 μM ADU-S100) is reported as 3.02 and the “CCL5 avg log2FC” value (10 μM ADU-S100) is reported as 2.10. The “CMPK2 avg log2FC” value (10 μM ADU-S100) was 2.19, the “CXCL1 avg log2FC” value (10 μM ADU-S100) was 2.20 and the “CXCL10 avg log2FC” value (10 μM ADU-S100) was 3.10. For the same molecule, the “CXCL11 avg log2FC” value (10 μM ADU-S100) was 2.45, the “HES4 avg log2FC” value (10 μM ADU-S100) was 2.07 and the “HLA-B avg log2FC” value (10 μM ADU-S100) was 2.09. For the same molecule, the “HLA-C avg log2FC” value (10 μM ADU-S100) was 2.08, the “IFI6 avg log2FC” value (10 μM ADU-S100) was 4.76 and the “IFI27 avg log2FC” value (10 μM ADU-S100) was 4.89. The “IFI30 avg log2FC” value (10 μM ADU-S100) was 2.24, the “IFI35 avg log2FC” value (10 μM ADU-S100) was 2.69 and the “IFIT1 avg log2FC” value (10 μM ADU-S100) was 3.89. For the same molecule, the “IFIT2 avg log2FC” value (10 μM ADU-S100) was 3.99, the “IFIT3 avg log2FC” value (10 μM ADU-S100) was 4.01 and the “IFITM1 avg log2FC” value (10 μM ADU-S100) was 3.42. For the same molecule, the “IL1B avg log2FC” value (10 μM ADU-S100) was 2.23, the “IL1RN avg log2FC” value (10 μM ADU-S100) was 2.21 and the “IL32 avg log2FC” value (10 μM ADU-S100) was 3.43. For the same molecule, the “IRF7 avg log2FC” value (10 μM ADU-S100) was 2.44, the “ISG15 avg log2FC” value (10 μM ADU-S100) was 5.19 and the “ISG20 avg log2FC” value (10 μM ADU-S100) was 3.89. For the same molecule, the “LAP3 avg log2FC” value (10 μM ADU-S100) was 2.78, the “LY6E avg log2FC” value (10 μM ADU-S100) was 3.24 and the “MDK avg log2FC” value (10 μM ADU-S100) was 2.01. The “MX1 avg log2FC” value (10 μM ADU-S100) was 2.84, the “OAS1 avg log2FC” value (10 μM ADU-S100) was 3.40 and the “OAS3 avg log2FC” value (10 μM ADU-S100) was 2.02. The “OASL avg log2FC” value (10 μM ADU-S100) was 3.01, the “PLAAT4 avg log2FC” value (10 μM ADU-S100) was 2.38 and the “PLSCR1 avg log2FC” value (10 μM ADU-S100) was 2.64. The “RSAD2 avg log2FC” value (10 μM ADU-S100) was 4.43, the “SAA1 avg log2FC” value (10 μM ADU-S100) was 2.46 and the “STAT1 avg log2FC” value (10 μM ADU-S100) was 2.09. The “TFPI2 avg log2FC” value (10 μM ADU-S100) was 2.88, the “TNFSF13B avg log2FC” value (10 μM ADU-S100) was 2.03 and the “WARS avg log2FC” value (10 μM ADU-S100) was 3.24. The “WFDC2 avg log2FC” value (10 μM ADU-S100) was 2.06, the “IL-33 expression in CAFs” value (24 hours) was “potent and unique STING agonist induction” and the “CXCR3 ligand expression (CXCL9, CXCL10, CXCL11)” value (24 hours, primarily MSLN positive tumor cells (cluster 1) and CAFs (clusters 4, 5)) was “strongly induced”. The TGFB1 expression (MPM cluster 1 relative to clusters 0, 3) was “downregulated”, the “NECTIN2 (CD112) expression in tumor cells” value (NK cell activating ligand) was “increased” and the “HLA-A/B/C expression in tumor cells” value (NK cell inhibitory ligands) was “dose-dependent increases”. The “ANGPTL4 avg log2FC” value (STING agonist treatment) was −1.48, the “CCDC80 avg log2FC” value (STING agonist treatment) was −1.57 and the “CEMIP avg log2FC” value (STING agonist treatment) was −1.20. The “ID1 avg log2FC” value (STING agonist treatment) was −1.07, the “IGFBP4 avg log2FC” value (STING agonist treatment) was −1.42 and the “KRT19 avg log2FC” value (STING agonist treatment) was −1.81. The “LDHA avg log2FC” value (STING agonist treatment) was −1.16, the “NDRG1 avg log2FC” value (STING agonist treatment) was −1.07 and the “PABPC1 avg log2FC” value (STING agonist treatment) was −1.11. For the same molecule, the “PGK1 avg log2FC” value (STING agonist treatment) was −1.04, the “RPL41 avg log2FC” value (STING agonist treatment) was −1.09 and the “RPS29 avg log2FC” value (STING agonist treatment) was −1.10. The “RPSA avg log2FC” value (STING agonist treatment) was −1.10, the “SERPINB3 avg log2FC” value (STING agonist treatment) was −2.15 and the “SERPINB4 avg log2FC” value (STING agonist treatment) was −1.25. The “SERPINB7 avg log2FC” value (STING agonist treatment) was −1.73, the “TGFBI avg log2FC” value (STING agonist treatment) was −2.38 and the “TPI1 avg log2FC” value (STING agonist treatment) was −1.11. For the same molecule, the “TUBA1A avg log2FC” value (STING agonist treatment) was −1.02, the “abundance of CD8 positive cell populations, including Tregs” value (high-dose treatment) was “depletion” and the “PVR (CD155) expression in tumor cells” value (predominantly inhibitory ligand) was “decreased expression”.
